Results: patent US11173160B2 (UNIVERSITY OF PITTSBURGH—OF THE COMMONWEALTH SYSTEM OF …, priority 2019, dated 2021)
Entries after “also recorded” stand apart in the source; their conditions may differ.

Assays:
[1] = tested on: SF8628 intracranial xenografts; test: SF8628 orthotopic xenograft model; assay type: in vivo, mice; conditions: for KI-67 staining (proliferation marker): 20 mg/kg, vs vehicle
Protocol: All animal procedures were carried out ethically according to animal user protocols approved by Institutional Animal Care Committee (IACUC). 4-6 week-old non-obese diabetic severe combined immune deficiency male or female mice (NOD-SCID-Prkdc^scid) were injected with 1×10^5 SU-DIPG-13p cells or 1×10^5 SF8628 DIPG cells. Cells were re-suspended in 2 μl of PBS and injected into the pons/midbrain using a stereotactic frame (Stoelting) and automated cell injector (Stoelting) with cells delivered over 4 minutes. Coordinates were as follows from the Lambda suture (x=0.8 mm, y=−0.8 mm, z=−5.0 mm). […] Mice were treated for two cycles (5 days on, with two days off per cycle). Mice were sacrificed at sign of neurological duress and brains were extracted and fixed in 4% PFA.
Also, the present disclosure used two established cell lines derived from transgenic mouse models of DIPG. Both lines are p53 null and express PDGFB, differing only in their H3.3 mutation status.
In a first DIPG mouse model, NOD-SCID gamma mice were injected with 2×10^5 SF8628 cells in the midbrain.
For each cycle, the compounds were administered 20 mg/kg/day for 5 days, followed with 2 days of rest period. Each mice received 2 cycles of treatment.

[2] = target: p38α (Homo sapiens, UniProt Q16539); conditions: cited from earlier work
[3] = target: TTK (Homo sapiens, UniProt P33981); conditions: cited from earlier work
[4] = tested on: normal astrocytes or neural stem cells; test: viability of normal cells treated with TG02; assay type: cell-based, human; conditions: nM ranges
Excerpt: Brain gliomas express high levels of ERK5 (FIG. 29).

[5] = tested on: DIPG-007 and DIPG-IV cells; test: Annexin-PI flow cytometry apoptosis assay; assay type: cell-based, human; conditions: 48 h, vs DMSO vehicle control
Protocol: FIGS. 5A-5K provide that pharmacological inhibition of ERK5 triggered cell death and apoptosis in DIPG cells. […] (5C-5E).
Apoptosis was quantified using the Pacific Blue Annexin V Apoptosis Detection Kit with propidium iodide (BioLegend, San Diego, Calif. Cat #640926). Analysis was performed at the Flow Cytometry Core, Rangos Research Center, UPMC Children's Hospital of Pittsburgh.

[6] = tested on: MYCN in DIPG-13p cells; test: MYCN transcript (qRT-PCR) and protein (Western blot); assay type: cell-based, human; conditions: DIPG-13p cells (MYCN amplification)
Protocol: FIG. 14E provides Western blot confirming MYCN protein levels decrease in DIPG-13p cells from FIG. 14E.
Total RNA isolation was performed using an RNA extraction kit according to the manufacturer's instructions (RNeasy kit, Qiagen). cDNA was synthesized from 100 ng of total RNA using the Quantitect RT kit which included DNAse treatment (Qiagen). Quantitative real-time PCR was performed on 10 ng of cDNA template in a final volume of 20 μl using the Chromo4 Real Time PCR detector (MJ Research, a Division of Bio-Rad Laboratories Ltd) using SYBR green fluorescence. RT-PCR data was analyzed using Opticon Monitor 3.1.3 analysis software. Data analysis was done using the delta CT method with HPRT1 as a reference/control gene. Specific Primers are available in Table 4.

[7] = target: Abl (Homo sapiens, UniProt P00519); conditions: cited from earlier work
[8] = cited from earlier work
[9] = target: PLK1 (Homo sapiens, UniProt P53350); conditions: cited from earlier work
[10] = tested on: six adult patient-derived glioblastoma cell lines (e.g., BT228, BT286, BT145); test: radiation therapy and TG02 in adult glioblastoma cell lines; assay type: cell-based, human; conditions: TG02 between 100 and 250 nM
Protocol: Cell viability was assessed on Day 5.

[11] = target: TLK2 (Homo sapiens, UniProt Q86UE8); conditions: cited from earlier work
[12] = target: CYP3A4 (Homo sapiens, UniProt P08684); conditions: cited from earlier work
[13] = target: PDGFRβ (Homo sapiens, UniProt P09619); conditions: cited from earlier work
[14] = target: TYRO3 (Homo sapiens, UniProt Q06418); conditions: Source Invitrogen; 10-point titration in duplicates, done once; cited from earlier work
[15] = tested on: DIPG-IV cells expressing MYC S62D; test: EC50 of TG02 in DIPG-IV cells expressing MYC S62D; assay type: cell-based, human; conditions: MYC S62D vs empty vector control
Protocol: Direct cell counts were performed using the Countess II FL Automated Cell Counter (ThermoFisher Scientific). Alamar blue viability (ThermoFisher Scientific) and the 5-bromo-2′-deoxyuridine (BrdU) incorporated cell proliferation assay (Cell Signaling Technology Cat #6813) were performed using the manufacturer's standard protocol. EC50 curve analysis was performed using raw fluorescent Alamar blue values that were inputted into PRISM 7.0. Drug concentrations were log 10 transformed and values normalized to percent viability with respect to vehicle treated cells. EC50 values were interpolated from a log inhibitor vs. normalized response with variable slope using a least square fit model.

[16] = target: JAK1 (Homo sapiens, UniProt P23458); conditions: Source Invitrogen; 10-point titration in duplicates, done once; cited from earlier work
[17] = target: CK1α1 (Homo sapiens, UniProt P48729); conditions: cited from earlier work
[18] = target: PKBα (Homo sapiens, UniProt P31749); conditions: cited from earlier work
[19] = target: KDR (Homo sapiens, UniProt P35968); conditions: cited from earlier work
[20] = tissue and plasma distribution after a single PO dose; assay type: in vivo, female nude mice
Protocol: Three mice were sacrificed at a time 10 min, 30 min, 1, 2, 4, 8, and 24 hrs after dosing and pharmacokinetic levels were assessed.

[21] = target: PRAK (Homo sapiens, UniProt Q8IW41); conditions: cited from earlier work
[22] = target: FAK (Homo sapiens, UniProt Q05397); conditions: cited from earlier work

Chain of KDR (P35968 20-1356): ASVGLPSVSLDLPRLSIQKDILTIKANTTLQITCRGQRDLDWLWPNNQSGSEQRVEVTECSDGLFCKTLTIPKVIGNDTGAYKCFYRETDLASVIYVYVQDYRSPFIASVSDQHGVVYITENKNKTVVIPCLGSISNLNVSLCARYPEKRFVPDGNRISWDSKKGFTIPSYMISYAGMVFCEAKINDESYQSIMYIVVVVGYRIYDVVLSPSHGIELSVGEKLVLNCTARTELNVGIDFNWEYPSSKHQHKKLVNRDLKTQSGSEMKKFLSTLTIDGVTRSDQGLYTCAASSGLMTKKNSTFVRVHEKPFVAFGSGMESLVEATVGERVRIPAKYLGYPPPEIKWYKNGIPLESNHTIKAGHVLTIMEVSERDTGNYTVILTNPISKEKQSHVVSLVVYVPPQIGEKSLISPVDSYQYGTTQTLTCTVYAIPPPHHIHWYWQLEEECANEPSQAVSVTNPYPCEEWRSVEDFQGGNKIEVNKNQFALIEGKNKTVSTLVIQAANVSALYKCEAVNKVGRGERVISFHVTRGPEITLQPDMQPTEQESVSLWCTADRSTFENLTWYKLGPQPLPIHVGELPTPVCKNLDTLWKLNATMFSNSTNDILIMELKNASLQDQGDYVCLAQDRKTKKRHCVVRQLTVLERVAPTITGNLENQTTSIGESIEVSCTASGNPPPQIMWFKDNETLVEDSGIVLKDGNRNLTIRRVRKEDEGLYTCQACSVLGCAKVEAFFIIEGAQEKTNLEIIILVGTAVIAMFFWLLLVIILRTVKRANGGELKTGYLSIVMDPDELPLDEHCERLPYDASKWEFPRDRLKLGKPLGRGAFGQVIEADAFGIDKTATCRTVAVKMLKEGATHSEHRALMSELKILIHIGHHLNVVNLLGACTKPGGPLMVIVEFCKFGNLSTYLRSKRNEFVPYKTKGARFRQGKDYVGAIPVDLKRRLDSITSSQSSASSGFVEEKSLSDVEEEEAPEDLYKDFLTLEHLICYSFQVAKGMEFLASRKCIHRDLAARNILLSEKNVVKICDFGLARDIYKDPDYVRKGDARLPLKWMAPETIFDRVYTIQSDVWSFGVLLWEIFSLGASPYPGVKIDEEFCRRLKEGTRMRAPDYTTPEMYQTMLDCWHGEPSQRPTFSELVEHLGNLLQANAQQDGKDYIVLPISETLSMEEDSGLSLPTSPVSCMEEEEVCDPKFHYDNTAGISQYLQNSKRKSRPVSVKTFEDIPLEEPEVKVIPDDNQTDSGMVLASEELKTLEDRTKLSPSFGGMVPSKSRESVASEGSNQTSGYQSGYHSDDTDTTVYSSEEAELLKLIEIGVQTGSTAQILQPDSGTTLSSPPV
Chain of PLK1 (P53350 whole entry, species assumed): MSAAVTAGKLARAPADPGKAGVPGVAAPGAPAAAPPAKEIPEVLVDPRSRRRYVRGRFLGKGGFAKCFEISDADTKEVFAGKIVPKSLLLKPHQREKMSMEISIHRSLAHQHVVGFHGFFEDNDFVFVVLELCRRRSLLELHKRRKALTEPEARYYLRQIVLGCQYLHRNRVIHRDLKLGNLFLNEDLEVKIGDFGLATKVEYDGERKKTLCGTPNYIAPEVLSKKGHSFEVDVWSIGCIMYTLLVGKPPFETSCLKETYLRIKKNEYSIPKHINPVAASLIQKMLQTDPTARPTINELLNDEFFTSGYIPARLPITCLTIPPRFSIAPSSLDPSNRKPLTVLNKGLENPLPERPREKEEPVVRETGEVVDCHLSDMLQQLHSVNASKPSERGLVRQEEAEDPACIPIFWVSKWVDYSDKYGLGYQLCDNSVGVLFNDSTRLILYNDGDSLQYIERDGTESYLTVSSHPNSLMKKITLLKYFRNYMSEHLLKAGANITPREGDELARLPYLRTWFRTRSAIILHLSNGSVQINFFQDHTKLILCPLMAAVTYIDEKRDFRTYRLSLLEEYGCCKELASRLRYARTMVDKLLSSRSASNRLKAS
Chain of PKBα (P31749 whole entry, species assumed): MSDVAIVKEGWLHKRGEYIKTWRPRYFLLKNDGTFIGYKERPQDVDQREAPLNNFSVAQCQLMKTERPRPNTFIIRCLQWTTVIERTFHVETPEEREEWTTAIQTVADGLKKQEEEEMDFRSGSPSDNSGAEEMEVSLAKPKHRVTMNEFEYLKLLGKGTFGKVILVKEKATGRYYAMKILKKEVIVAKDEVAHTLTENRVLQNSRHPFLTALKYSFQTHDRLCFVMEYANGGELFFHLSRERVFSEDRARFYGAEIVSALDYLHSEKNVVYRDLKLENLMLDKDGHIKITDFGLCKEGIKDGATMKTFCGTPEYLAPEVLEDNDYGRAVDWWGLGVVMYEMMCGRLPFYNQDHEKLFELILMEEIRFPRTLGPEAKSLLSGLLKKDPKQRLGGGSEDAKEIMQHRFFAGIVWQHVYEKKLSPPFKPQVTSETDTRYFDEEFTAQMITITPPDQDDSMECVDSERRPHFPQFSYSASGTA
Chain of CK1α1 (P48729 whole entry): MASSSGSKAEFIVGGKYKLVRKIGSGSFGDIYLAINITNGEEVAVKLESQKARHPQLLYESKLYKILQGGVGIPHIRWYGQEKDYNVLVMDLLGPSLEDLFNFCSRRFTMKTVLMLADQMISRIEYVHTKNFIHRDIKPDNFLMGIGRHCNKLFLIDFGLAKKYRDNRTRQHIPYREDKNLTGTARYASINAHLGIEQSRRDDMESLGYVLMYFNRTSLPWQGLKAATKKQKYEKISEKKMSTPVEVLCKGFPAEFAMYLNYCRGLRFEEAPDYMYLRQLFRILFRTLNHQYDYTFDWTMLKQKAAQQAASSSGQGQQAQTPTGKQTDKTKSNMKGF
Chain of Abl (P00519 whole entry): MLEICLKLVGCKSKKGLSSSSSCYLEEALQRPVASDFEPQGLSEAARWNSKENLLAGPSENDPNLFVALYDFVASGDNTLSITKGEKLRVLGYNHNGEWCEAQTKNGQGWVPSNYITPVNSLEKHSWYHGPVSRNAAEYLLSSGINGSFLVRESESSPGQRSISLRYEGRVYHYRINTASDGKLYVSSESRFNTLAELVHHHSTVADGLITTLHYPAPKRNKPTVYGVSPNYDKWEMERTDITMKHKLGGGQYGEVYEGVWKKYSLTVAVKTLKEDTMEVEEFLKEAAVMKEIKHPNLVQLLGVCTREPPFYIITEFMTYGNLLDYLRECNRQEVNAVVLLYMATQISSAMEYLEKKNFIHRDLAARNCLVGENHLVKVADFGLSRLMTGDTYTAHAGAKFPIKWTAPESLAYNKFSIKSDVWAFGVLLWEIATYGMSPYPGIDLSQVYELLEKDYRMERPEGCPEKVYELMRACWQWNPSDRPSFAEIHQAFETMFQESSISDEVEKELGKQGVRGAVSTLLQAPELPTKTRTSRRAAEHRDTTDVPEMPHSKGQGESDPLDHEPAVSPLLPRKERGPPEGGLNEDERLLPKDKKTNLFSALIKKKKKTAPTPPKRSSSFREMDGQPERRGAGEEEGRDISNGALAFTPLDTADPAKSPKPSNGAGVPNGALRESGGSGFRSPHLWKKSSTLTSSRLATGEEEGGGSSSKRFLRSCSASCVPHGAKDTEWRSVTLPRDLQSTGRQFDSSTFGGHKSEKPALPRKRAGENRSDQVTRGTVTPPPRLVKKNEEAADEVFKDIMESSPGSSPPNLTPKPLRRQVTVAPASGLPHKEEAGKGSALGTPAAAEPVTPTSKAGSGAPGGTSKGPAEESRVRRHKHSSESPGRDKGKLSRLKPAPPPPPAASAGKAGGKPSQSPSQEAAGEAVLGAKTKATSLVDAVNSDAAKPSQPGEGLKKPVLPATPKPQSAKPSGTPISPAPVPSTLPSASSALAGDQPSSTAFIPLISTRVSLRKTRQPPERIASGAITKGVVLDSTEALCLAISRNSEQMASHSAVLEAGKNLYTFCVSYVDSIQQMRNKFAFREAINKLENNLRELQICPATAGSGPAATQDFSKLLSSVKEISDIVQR
Chain of TLK2 (Q86UE8 whole entry, species assumed): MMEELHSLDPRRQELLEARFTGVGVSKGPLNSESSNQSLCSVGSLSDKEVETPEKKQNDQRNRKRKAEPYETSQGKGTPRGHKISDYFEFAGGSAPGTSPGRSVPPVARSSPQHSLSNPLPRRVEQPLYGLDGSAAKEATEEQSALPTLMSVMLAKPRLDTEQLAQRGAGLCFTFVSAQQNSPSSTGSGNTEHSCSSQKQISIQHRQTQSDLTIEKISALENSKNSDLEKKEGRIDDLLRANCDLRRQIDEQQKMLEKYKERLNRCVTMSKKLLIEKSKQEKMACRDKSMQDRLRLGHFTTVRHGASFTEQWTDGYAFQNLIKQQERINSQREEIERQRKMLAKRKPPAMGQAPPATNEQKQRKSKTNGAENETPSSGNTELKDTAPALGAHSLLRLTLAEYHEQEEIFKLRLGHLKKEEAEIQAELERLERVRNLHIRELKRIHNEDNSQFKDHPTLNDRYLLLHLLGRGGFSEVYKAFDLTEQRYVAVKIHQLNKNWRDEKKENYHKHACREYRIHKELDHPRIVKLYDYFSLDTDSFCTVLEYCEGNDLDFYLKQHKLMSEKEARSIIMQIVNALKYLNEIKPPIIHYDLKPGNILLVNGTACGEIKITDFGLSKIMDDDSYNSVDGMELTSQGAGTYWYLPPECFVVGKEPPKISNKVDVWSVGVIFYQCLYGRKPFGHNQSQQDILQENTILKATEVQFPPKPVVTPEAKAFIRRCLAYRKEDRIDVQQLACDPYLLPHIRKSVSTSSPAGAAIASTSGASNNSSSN
Chain of p38α (Q16539 whole entry): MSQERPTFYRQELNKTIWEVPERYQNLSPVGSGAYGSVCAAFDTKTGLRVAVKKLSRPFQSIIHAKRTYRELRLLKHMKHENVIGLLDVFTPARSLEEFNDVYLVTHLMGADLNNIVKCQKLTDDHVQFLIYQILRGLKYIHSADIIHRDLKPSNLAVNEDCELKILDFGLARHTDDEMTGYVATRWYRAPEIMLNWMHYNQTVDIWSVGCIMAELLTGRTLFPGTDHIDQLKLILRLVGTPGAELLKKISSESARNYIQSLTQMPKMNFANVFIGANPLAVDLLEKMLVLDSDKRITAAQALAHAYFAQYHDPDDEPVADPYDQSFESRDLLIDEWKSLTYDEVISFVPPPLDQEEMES

## CN1C/C=C/CCOc2cccc(c2)-c2ccnc(n2)Nc2cccc(c2)C1 [TG02, (16E)-14-methyl-20-oxa-5,7,14,27-tetraazatetracyclo[19.3.1.12,6.18,12]heptacosa-1(25),2(27),3,5,8(26),9,11,16,21,23-decaene]
[1]; 2 cycles
  KI-67 staining (proliferation marker): reduced KI-67 staining
[1]; 2 cycles, listed as TG02 obtained from Adastra Pharmaceuticals
  KI-67 staining (proliferation marker): significantly reduced KI67 expression; also recorded: significantly reduced K167 expression
[1]; 20 mg/kg/day for 5 days, 2 days rest, 2 cycles
  survival vs vehicle: statistically significant increased median survival
[1]; TG02 20 mg/kg, 2 cycles of 5 days on 2 days off, vehicle 33 days
  median survival: 59 days
[1]; mice intracranially engrafted with DIPG cells
  extension of median survival time: nearly two-fold
[2]
  inhibition at 100 nm: less than 50%
[3]
  inhibition at 100 nm: less than 50%
[4]
  toxicity to normal cells: not toxic
[5]
  apoptosis (Annexin-PI): significantly higher rates of apoptosis; also recorded: increased populations in early apoptosis
  viable cells (Annexin negative, PI negative): decreased viable cells
[6]
  MYCN protein and transcript levels: MYCN protein and transcriptional down-regulation
[7]
  inhibition at 100 nm: less than 50%
[8]; human, in vivo
  most clinically significant toxicities, TG02 combined with RT: grade 2 nausea and vomiting and grade 3 neutropenia
[8]; twice a week in older adults
  significant drug-related toxicities, single agent: increased liver function tests and grade 3 neutropenia
[8]; twice a week in older adults, probably
  MTD as single-agent: ~150 mg per dose
[9]
  inhibition at 100 nm: less than 50%
[10]
  effect of combining radiation therapy (RT) and TG02: mostly a synergistic effect
[11]
  inhibition at 100 nm: less than 50%
[12]
  substrate of CYP3A4: substrate
[13]
  inhibition at 100 nm: less than 50%
[14]
  IC50: 36 nM
[15]
  resistance to TG02: promoted resistance to TG02
[16]
  IC50: 59 nM
[17]
  inhibition at 100 nm: less than 50%
[18]
  inhibition at 100 nm: less than 50%
[19]
  inhibition at 100 nm: less than 50%
[20]; mouse, in vivo
  blood-brain barrier penetration: blood-brain barrier penetrant
[20]; single PO dose of 75 mg/kg
  Cmax in the brain compared to plasma: at least twice as high
  exposure (AUC0-last) in the brain compared to plasma: at least twice as high
[21]
  inhibition at 100 nm: less than 50%
[22]
  inhibition at 100 nm: less than 50%
